IC50 data for 26 compounds are collected here from patent US8471005B2 (Cephalon, Inc., priority 2008, dated 2013).

One assay has as its target T1, ALK (Homo sapiens, UniProt Q9UM73).
T1 construct: host or cells: baculovirus expression system
The assay is described as follows: ALK Kinase Assay (ELISA/TRF, PLC-γ substrate). The settings on record: read-out: ALK Potency. In kind it is biochemical. In a few lines:
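IC50 values derive from percent inhibition plotted against log10 compound concentration and fitted to a variable-slope sigmoidal equation. The underlying reaction used 30 ng/ml ALK acting on immobilized PLC-γ (10 μg/mL in TBS) at 37° C for 15 minutes, read with Eu-N1 PT66 antibody.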
On the technique in general: An ELISA detects its analyte on a solid surface through an enzyme-linked reagent.

Another assay addresses T2, JAK2 (Homo sapiens, UniProt O60674).
T2 construct: host or cells: baculovirus expression system
The assay is described as follows: Recombinant Human JAK2 Kinase Assay (TRF). The settings on record: read-out: JAK2 Potency. In kind it is biochemical. In a few lines:
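Kinase activity of baculovirus-expressed JAK2 is followed on a surface-immobilised biotinylated peptide, with the reaction run for 20 min at room temperature in buffer containing 0.2 μM ATP and manganese. Phosphorylation is read with Eu-N1 PY100 antibody.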

Setting [1] is: ALK kinase inhibition, 1 μM ATP.
Setting [2] is: JAK2 kinase inhibition, 0.2 μM ATP.

Read-outs that look alike come from different tables or passages of the source.

T2 sequence (O60674 whole entry): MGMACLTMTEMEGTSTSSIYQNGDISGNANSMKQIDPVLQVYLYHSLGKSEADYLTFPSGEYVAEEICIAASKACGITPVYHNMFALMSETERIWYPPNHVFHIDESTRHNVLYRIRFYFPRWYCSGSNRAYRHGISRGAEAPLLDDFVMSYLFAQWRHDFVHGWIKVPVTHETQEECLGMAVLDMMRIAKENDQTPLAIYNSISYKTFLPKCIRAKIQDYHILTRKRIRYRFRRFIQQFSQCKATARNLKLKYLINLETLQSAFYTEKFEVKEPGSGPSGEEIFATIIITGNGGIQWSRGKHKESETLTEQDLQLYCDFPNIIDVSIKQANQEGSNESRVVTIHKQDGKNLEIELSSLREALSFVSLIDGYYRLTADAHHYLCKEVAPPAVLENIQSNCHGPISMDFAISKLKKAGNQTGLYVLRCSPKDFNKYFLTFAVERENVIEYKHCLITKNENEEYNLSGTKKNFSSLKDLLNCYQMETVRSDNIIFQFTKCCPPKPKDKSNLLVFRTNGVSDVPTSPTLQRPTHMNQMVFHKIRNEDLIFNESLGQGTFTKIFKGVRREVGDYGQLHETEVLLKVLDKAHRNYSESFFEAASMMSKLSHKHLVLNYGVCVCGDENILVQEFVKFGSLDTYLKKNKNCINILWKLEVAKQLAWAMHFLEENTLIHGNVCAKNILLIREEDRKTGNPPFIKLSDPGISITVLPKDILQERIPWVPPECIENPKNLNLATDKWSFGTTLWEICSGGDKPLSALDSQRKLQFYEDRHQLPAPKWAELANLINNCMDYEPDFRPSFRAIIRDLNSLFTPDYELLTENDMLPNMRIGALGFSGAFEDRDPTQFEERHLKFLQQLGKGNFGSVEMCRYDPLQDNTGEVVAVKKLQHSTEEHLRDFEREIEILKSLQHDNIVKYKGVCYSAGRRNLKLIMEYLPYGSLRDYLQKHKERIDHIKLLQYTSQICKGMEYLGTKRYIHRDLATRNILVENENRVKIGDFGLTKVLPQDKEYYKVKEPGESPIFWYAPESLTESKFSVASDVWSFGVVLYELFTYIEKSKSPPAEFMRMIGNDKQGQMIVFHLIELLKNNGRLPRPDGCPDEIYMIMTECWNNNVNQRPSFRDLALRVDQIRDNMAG
T1 sequence (Q9UM73 19-1620): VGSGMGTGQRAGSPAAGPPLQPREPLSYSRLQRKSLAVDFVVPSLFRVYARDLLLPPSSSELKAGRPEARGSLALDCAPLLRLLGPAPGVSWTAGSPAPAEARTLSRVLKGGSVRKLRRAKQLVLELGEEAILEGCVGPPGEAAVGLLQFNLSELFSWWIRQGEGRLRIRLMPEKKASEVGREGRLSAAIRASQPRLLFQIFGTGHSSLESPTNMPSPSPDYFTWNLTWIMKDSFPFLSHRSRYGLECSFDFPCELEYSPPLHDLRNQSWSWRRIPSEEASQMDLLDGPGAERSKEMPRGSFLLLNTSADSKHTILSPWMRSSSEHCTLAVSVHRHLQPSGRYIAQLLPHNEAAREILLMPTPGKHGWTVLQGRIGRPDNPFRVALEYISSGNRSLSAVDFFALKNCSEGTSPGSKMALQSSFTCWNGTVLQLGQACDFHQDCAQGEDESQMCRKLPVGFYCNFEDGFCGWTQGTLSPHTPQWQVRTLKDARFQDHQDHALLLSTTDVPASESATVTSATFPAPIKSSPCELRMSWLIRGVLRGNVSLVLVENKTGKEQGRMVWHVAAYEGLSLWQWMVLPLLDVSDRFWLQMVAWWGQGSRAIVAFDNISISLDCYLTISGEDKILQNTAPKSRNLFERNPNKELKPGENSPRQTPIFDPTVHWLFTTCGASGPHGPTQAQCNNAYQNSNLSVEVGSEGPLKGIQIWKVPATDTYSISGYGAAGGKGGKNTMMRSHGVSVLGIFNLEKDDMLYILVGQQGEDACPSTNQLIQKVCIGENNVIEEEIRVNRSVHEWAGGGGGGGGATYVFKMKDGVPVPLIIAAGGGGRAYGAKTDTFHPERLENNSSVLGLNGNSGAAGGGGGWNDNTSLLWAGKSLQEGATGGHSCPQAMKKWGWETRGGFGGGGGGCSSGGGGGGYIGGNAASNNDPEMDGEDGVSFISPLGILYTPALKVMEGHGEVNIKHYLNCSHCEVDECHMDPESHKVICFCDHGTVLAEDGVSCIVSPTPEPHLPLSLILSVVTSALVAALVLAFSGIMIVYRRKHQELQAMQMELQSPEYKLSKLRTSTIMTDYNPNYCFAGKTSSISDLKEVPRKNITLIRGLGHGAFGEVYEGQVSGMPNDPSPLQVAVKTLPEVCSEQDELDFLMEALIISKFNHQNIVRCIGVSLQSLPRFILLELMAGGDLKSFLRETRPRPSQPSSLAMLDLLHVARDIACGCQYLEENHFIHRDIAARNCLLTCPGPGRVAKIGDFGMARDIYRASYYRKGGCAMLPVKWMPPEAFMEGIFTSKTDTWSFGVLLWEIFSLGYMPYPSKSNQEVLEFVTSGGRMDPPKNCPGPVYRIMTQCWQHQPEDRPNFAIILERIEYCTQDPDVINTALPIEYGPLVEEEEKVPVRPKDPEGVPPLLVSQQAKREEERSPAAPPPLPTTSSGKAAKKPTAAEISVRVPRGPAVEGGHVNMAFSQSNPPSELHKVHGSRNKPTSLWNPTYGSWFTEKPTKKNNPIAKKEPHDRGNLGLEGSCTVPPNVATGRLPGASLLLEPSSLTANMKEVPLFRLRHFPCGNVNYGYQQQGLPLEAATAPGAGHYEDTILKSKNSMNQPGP

Regarding `CN1CCN(CC2CCN(c3ccc(Nc4ncc5ccc(-c6ccccc6N(C)S(C)(=O)=O)n5n4)cc3)CC2)CC1` [Example 450, N-Methyl-N-[2-(2-{4-[4-(4-methyl-piperazin-1-ylmethyl)-piperidin-1-yl]-phenylamino}-pyrrolo[2,1-f][1,2,4]triazin-7-yl)-phenyl]-methanesulfonamide], the IC50 at ALK (ALK Kinase Inhibition) and at JAK2 (JAK2 Kinase Inhibition) was under 100 nM in each case.
As for `CC(=O)N1CCc2ccc(Nc3ncc4ccc(-c5cccc(NS(C)(=O)=O)c5)n4n3)cc21` [Example 1367, N-{3-[2-(1-Acetyl-2,3-dihydro-1H-indol-6-ylamino)-pyrrolo[2,1-f][1,2,4]triazin-7-yl]-phenyl}-methanesulfonamide], the IC50 at ALK (ALK Kinase Inhibition) was 1000 to 10000 nM; at JAK2 (JAK2 Kinase Inhibition), under 100 nM.
Taken in the same sequence, the figures for `COc1ccccc1-c1ccc2cnc(Nc3ccc(N4CCOCC4)c(F)c3)nn12` [Example 186, (3-Fluoro-4-morpholin-4-yl-phenyl)-[7-(2-methoxy-phenyl)-pyrrolo[2,1-f][1,2,4]triazin-2-yl]-amine] were 100 to 1000 nM and under 100 nM.
For `CN1CCN(c2ccc(Nc3ncc4ccc(-c5cccc(S(=O)(=O)N6CCCC6)c5)n4n3)cc2)CC1` [Example 367, [4-(4-Methyl-piperazin-1-yl)-phenyl]-{7-[3-(pyrrolidine-1-sulfonyl)-phenyl]-pyrrolo[2,1-f][1,2,4]triazin-2-yl}-amine] the same measures were 100 to 1000 nM and under 100 nM.
As for `CN1CCN(C)C(c2cccc(Nc3ncc4ccc(-c5cccc(S(=O)(=O)NC(C)(C)C)c5)n4n3)c2)C1=O` (stereo not shown) [Example 1077, N-tert-Butyl-3-{2-[3-(1,4-dimethyl-3-oxo-piperazin-2-yl)-phenylamino]-pyrrolo[2,1-f][1,2,4]triazin-7-yl}-benzenesulfonamide], the IC50 is 1000 to 10000 nM at ALK (setting [1]) and under 100 nM on JAK2 (setting [2]).
With `COc1ccc(-c2ccc3cnc(Nc4ccc(C(F)(F)C(=O)N5CCN(C)CC5)cc4)nn23)cn1` [Example 1516, 2,2-Difluoro-2-{4-[7-(6-methoxy-pyridin-3-yl)-pyrrolo[2,1-f][1,2,4]triazin-2-ylamino]-phenyl}-1-(4-methyl-piperazin-1-yl)-ethanone], the IC50 on ALK (ALK Kinase Inhibition) is 1000 to 10000 nM; at JAK2 (JAK2 Kinase Inhibition) it was under 100 nM.
For the compound `COc1ccc(-c2ccc3cnc(Nc4ccc(C5CCN(CC(N)=O)CC5)cc4)nn23)c(OC)n1` [Example 682, 2-(4-{4-[7-(2,6-Dimethoxy-pyridin-3-yl)-pyrrolo[2,1-f][1,2,4]triazin-2-ylamino]-phenyl}-piperidin-1-yl)-acetamide], the IC50 on ALK (setting [1]) and on JAK2 (setting [2]) was under 100 nM in each case.
With `CS(=O)(=O)CCNC(=O)c1ccc(-c2ccc3cnc(Nc4ccc(N5CCOCC5)cc4)nn23)cc1` [Example 117, N-(2-Methanesulfonyl-ethyl)-4-[2-(4-morpholin-4-yl-phenylamino)-pyrrolo[2,1-f][1,2,4]triazin-7-yl]-benzamide], the values for the IC50 at ALK (ALK Kinase Inhibition) and on JAK2 (JAK2 Kinase Inhibition) were 1000 to 10000 nM and under 100 nM, respectively.
With `COc1ccccc1-c1cc(C#N)c2cnc(Nc3ccc(N4CCN(C)CC4)cc3)nn12` [Example 114, 7-(2-Methoxy-phenyl)-2-[4-(4-methyl-piperazin-1-yl)-phenylamino]-pyrrolo[2,1-f][1,2,4]triazine-5-carbonitrile], the IC50 was 100 to 1000 nM at ALK (ALK Kinase Inhibition) and under 100 nM on JAK2 (JAK2 Kinase Inhibition).
For `COc1ccccc1-c1ccc2cnc(Nc3ccc(OCCN4CCCC4)cc3)nn12` [Example 121, [7-(2-Methoxy-phenyl)-pyrrolo[2,1-f][1,2,4]triazin-2-yl]-[4-(2-pyrrolidin-1-yl-ethoxy)-phenyl]-amine] the same measures were under 100 nM and under 100 nM.
With `CN(c1ccccc1-c1ccc2cnc(OC3CCN(c4ccc(N)cc4)CC3)nn12)S(C)(=O)=O` [Example 634, N-(2-{2-[1-(4-Amino-phenyl)-piperidin-4-yloxy]-pyrrolo[2,1-f][1,2,4]triazin-7-yl}-phenyl)-N-methyl-methanesulfonamide], the IC50 at ALK (setting [1]) lay within 1000 to 10000 nM; at JAK2 (setting [2]), 100 to 1000 nM.
Taken in the same sequence, the figures for `CC(C)(C)NS(=O)(=O)c1cccc(-c2ccc3cnc(Nc4ccc5c(c4)NC(=O)C5(C)C)nn23)c1` [Example 655, N-tert-Butyl-3-[2-(3,3-dimethyl-2-oxo-2,3-dihydro-1H-indol-6-ylamino)-pyrrolo[2,1-f][1,2,4]triazin-7-yl]-benzenesulfonamide] were 100 to 1000 nM and under 100 nM.
Consider `COc1ccc(-c2ccc3cnc(Nc4ccc(CN5CCN(C)CC5)cc4)nn23)cn1` [Example 1214, [7-(6-Methoxy-pyridin-3-yl)-pyrrolo[2,1-f][1,2,4]triazin-2-yl]-[4-(4-methyl-piperazin-1-ylmethyl)-phenyl]-amine], for which the values for the IC50 on ALK (setting [1]) and on JAK2 (setting [2]) were 100 to 1000 nM and under 100 nM, respectively.
For `COc1ccccc1-c1ccc2cnc(Nc3cn(CC(=O)N4CCOCC4)cn3)nn12` [Example 1113, 2-{4-[7-(2-Methoxy-phenyl)-pyrrolo[2,1-f][1,2,4]triazin-2-ylamino]-imidazol-1-yl}-1-morpholin-4-yl-ethanone] the same measures were 1000 to 10000 nM and under 100 nM.
Turning to `NC(=O)CN1CCC(c2ccc(Nc3ncc4ccc(-c5cccc(CO)c5)n4n3)cc2)CC1` [Example 1065, 2-(4-{4-[7-(3-Hydroxymethyl-phenyl)-pyrrolo[2,1-f][1,2,4]triazin-2-ylamino]-phenyl}-piperidin-1-yl)-acetamide], the IC50 on ALK (setting [1]) is 100 to 1000 nM; at JAK2 (setting [2]) it was under 100 nM.
Taken in the same sequence, the figures for `CCN1CCN(C(=O)c2ccc(Nc3ncc4c(-c5ccc(F)cc5)ccn4n3)cc2)CC1` [Example 727, (4-Ethyl-piperazin-1-yl)-{4-[5-(4-fluoro-phenyl)-pyrrolo[2,1-f][1,2,4]triazin-2-ylamino]-phenyl}-methanone] were over 10000 nM and over 10000 nM.
For the compound `COCCOc1ncc2ccc(-c3cc(Cl)ccc3OC)n2n1` [Example 191, 7-(5-Chloro-2-methoxy-phenyl)-2-(2-methoxy-ethoxy)-pyrrolo[2,1-f][1,2,4]triazine], the values for the IC50 at ALK (ALK Kinase Inhibition) and at JAK2 (JAK2 Kinase Inhibition) were over 10000 nM and under 100 nM, respectively.
`COc1cc2c(cc1Nc1ncc3ccc(-c4ccccc4N(C)S(C)(=O)=O)n3n1)CCC1(CCN(C[C@H](C)O)CC1)O2` [Example 1496, N-{2-[2-({1′-[(25)-2-hydroxypropyl]-7-methoxy-3,4-dihydrospiro[chromene-2,4′-piperidin]-6-yl}amino)pyrrolo[2,1-f][1,2,4]triazin-7-yl]phenyl}-N-methylmethanesulfonamide]: the IC50 on ALK (ALK Kinase Inhibition) was under 100 nM; on JAK2 (JAK2 Kinase Inhibition), 1000 to 10000 nM.
As to `COc1cc(CN2CCOCC2)ccc1Nc1ncc2ccc(-c3ccccc3OC)n2n1` [Example 1220, (2-Methoxy-4-morpholin-4-ylmethyl-phenyl)-[7-(2-methoxy-phenyl)-pyrrolo[2,1-f][1,2,4]triazin-2-yl]-amine], the IC50 is under 100 nM at ALK (setting [1]) and 100 to 1000 nM at JAK2 (setting [2]).
For `O=S1(=O)CCN(Cc2ccc(-c3ccc4cnc(Nc5ccc(N6CCOCC6)cc5)nn34)cc2)CC1` [Example 1032, {7-[4-(1,1-Dioxo-1$1(6)-thiomorpholin-4-ylmethyl)-phenyl]-pyrrolo[2,1-f][1,2,4]triazin-2-yl}-(4-morpholin-4-yl-phenyl)-amine] the same measures were 100 to 1000 nM and under 100 nM.
Regarding `COc1cc(Nc2ncc3ccc(-c4ccc(S(C)(=O)=O)cc4)n3n2)cc(OC)c1OC` [Example 162, [7-(4-Methanesulfonyl-phenyl)-pyrrolo[2,1-f][1,2,4]triazin-2-yl]-(3,4,5-trimethoxy-phenyl)-amine], the IC50 on ALK (ALK Kinase Inhibition) was 100 to 1000 nM; on JAK2 (JAK2 Kinase Inhibition) it was under 100 nM.
For `O=C(c1cccc(-c2ccc3cnc(Nc4ccc(N5CCOCC5)cc4)nn23)c1)N1CCCC1` [Example 15, {3-[2-(4-Morpholin-4-yl-phenylamino)-pyrrolo[2,1-f][1,2,4]triazin-7-yl]-phenyl}-pyrrolidin-1-yl-methanone] the same measures were 100 to 1000 nM and under 100 nM.
Consider `CC(C)Oc1cccc(-c2ccc3cnc(Nc4ccc(C5CCN(CC(N)=O)CC5)cc4)nn23)c1` [Example 588, 2-(4-{4-[7-(3-Isopropoxy-phenyl)-pyrrolo[2,1-f][1,2,4]triazin-2-ylamino]-phenyl}-piperidin-1-yl)-acetamide], for which the values for the IC50 on ALK (setting [1]) and on JAK2 (setting [2]) were 100 to 1000 nM and under 100 nM, respectively.
Taken in the same sequence, the figures for `COc1cc(C(=O)N2CCN(C)CC2)ccc1Nc1ncc2ccc(-c3ccccc3N(C)S(C)(=O)=O)n2n1` [Example 490, N-(2-{2-[2-Methoxy-4-(4-methyl-piperazine-1-carbonyl)-phenylamino]-pyrrolo[2,1-f][1,2,4]triazin-7-yl}-phenyl)-N-methyl-methanesulfonamide] were 100 to 1000 nM and 1000 to 10000 nM.
Consider `COc1cc(C2CCN(C3COC3)CC2)ccc1Nc1ncc2ccc(-c3ccccc3N(C)S(C)(=O)=O)n2n1` [Example 828, N-(2-{2-[2-Methoxy-4-(1-oxetan-3-yl-piperidin-4-yl)-phenylamino]-pyrrolo[2,1-f][1,2,4]triazin-7-yl}-phenyl)-N-methyl-methanesulfonamide], for which the IC50 at ALK (setting [1]) was under 100 nM; at JAK2 (setting [2]), 1000 to 10000 nM.
`COc1cccc(-c2ccn3nc(Nc4ccc(N5CCN(C)CC5)cc4)ncc23)c1` [Example 725, [5-(3-Methoxy-phenyl)-pyrrolo[2,1-f][1,2,4]triazin-2-yl]-[4-(4-methyl-piperazin-1-yl)-phenyl]-amine]: the IC50 on ALK (setting [1]) and at JAK2 (setting [2]) was over 10000 nM each time.
